The test system of the test is caspase-3/7. Kind of test: In vivo bioluminescent imaging of VivoGlo Caspase-3/7 substrate and caspase-3/7 inactive substrate(s). Conditions: mice bearing tumors stably expressing luciferase, treated with apoptosis-inducing cytotoxic therapy (e.g. docetaxel); substrate 62.5 mg/mL intraperitoneally; detected 5-30 minutes post injection. The method, then: In luciferase-expressing cells undergoing apoptosis, caspase-3/7 will cleave the DEVD peptide from the VivoGlo™ Caspase-3/7 substrate, allowing it to be a substrate for luciferase photon production. […] The photon emission will be detected with a photodetector device at timepoints from 5-30 minutes post injection and quantified.

Here are results for one substance from patent US20090238766A1, “BIOLUMINESCENT CONSTRUCT” (ABBOTT LABORATORIES, priority 2008, published 2009).

Turning to “Z-DEVD-aminoluciferin [VivoGlo Caspase-3/7]”, the “bioluminescent signal (photon emission)” value is on record as “significant bioluminescent signal”.
